Laboratory results as given in patent publication US20240100065A1, “METHODS FOR TREATING RECEPTOR-INTERACTING PROTEIN KINASE 1-MEDIATED DISEASES” (Genzyme Corporation, priority 2022, published 2024).
Entries after “also recorded” stand apart in the source; their conditions may differ.

Assay: Plasma pharmacokinetics after single and repeated oral doses
Type: in vivo, healthy adult participants (human)
Conditions: for AUC ratio, point estimate / AUClast ratio, point estimate / Cmax ratio, point estimate: Part 1a fasted
Procedure: In Part 1a, plasma samples were collected before dosing and at 10 post-dose timepoints on Day 1 (30 minutes, 1 hour, followed by every hour until 6 hours, and then every 2 hours until 12 hours), and single samples on Day 2 (at 24 hours) and Day 3 (at 48 hours). In Part 1b, timepoints included at least pre-dose and at 10 post-dose timepoints, including plasma sampling at the same time of CSF sampling. In Part 2, on Day 1 and Day 14, plasma samples were collected at pre-dose and at 10 to 11 post-dose timepoints. In addition, plasma samples were collected on Days 2, 3, 5, 7, 11, 15, 16, and 17.
PK population included all participants exposed to Compound 1 with no major or critical deviations related to Compound 1 and for whom PK data were considered sufficient and interpretable. PK parameters were summarized by descriptive statistics for each dose level group. Distribution of Tmax values was represented by histogram plots for each dose level group. In Part 1a, dose proportionality was assessed using a linear model on Cmax, AUClast and AUC. In Part 2, all PK analyses were performed separately for each regimen (OD and BID). Steady state was assessed on Ctrough using a non-linear model. Accumulation was assessed using a linear model on log-transformed accumulation ratio. Dose proportionality was assessed using a power model on Cmax and AUCtau on Day 1 and Day 14, separately. Variance components of log-transformed Cmax and AUCtau were estimated using a linear model. In Part 1b, CSF concentration was described by dose level group and CSF to plasma unbound concentration ratios calculated were described in the same way. 4β-hydroxycholesterol on Day 14 versus Day 1 pre-dose concentration ratios were summarized using descriptive statistics by dose level group and point estimates with 90% confidence interval (90% CI) for the geometric mean of the log-transformed Day14/Day1 ratio was calculated in Part 2.

[1] = 20 mg vs. 10 mg (dose increase = 2)
[2] = 30 mg vs. 10 mg (dose increase = 3)
[3] = 30 mg vs. 20 mg (dose increase = 1.5)
[4] = 40 mg vs. 10 mg (dose increase = 4)
[5] = 40 mg vs. 20 mg (dose increase = 2)
[6] = 40 mg vs. 30 mg (dose increase = 1.33)

**Q.** Which “Accumulation ratio (AUC0-24h), Day 14/Day 1” value (10 mg QD) does the source give for `CC(C)(C(=O)N1CCOc2c(C#N)cncc2C1)C(F)F` [Compound 1, 4-(3,3-difluoro-2,2-dimethyl-propanoyl)-3,5-dihydro-2H-pyrido[3,4-f] [1,4]oxazepine-9-carbonitrile] here?
**A.** 1.31

**Q.** What about the “Accumulation ratio (Cmax), Day 14/Day 1” value (10 mg QD) of the same compound?
**A.** 1.00

**Q.** What about the “Accumulation ratio (AUC0-12h), Day 14/Day 1” value (15 mg BID) of the same compound?
**A.** 1.45

**Q.** What about the “Accumulation ratio (Cmax), Day 14/Day 1” value (15 mg BID) of the same compound?
**A.** 1.24

**Q.** What about the “Accumulation ratio (AUC0-12h), Day 14/Day 1” value (20 mg BID) of the same compound?
**A.** 1.63

**Q.** And the “Accumulation ratio (Cmax), Day 14/Day 1” value (20 mg BID)?
**A.** 1.71

**Q.** And the “Accumulation ratio (AUC0-24h), Day 14/Day 1” value (20 mg QD)?
**A.** 1.13

**Q.** And the “Accumulation ratio (Cmax), Day 14/Day 1” value (20 mg QD)?
**A.** 1.06

**Q.** And the Cmax (20 mg QD, MAD study, read-out: Mean observed Cmax at steady state)?
**A.** 860 nM

**Q.** And the “Within-subject variability for AUCtau” value (BID cohorts)?
**A.** 11.3%

**Q.** And the “Within-subject variability for Cmax” value (BID cohorts)?
**A.** 17.9%

**Q.** What about the “Total variability for AUCtau” value (BID dosing regimen) of the same compound?
**A.** 28.4%

**Q.** What about the “Total variability for Cmax” value (BID dosing regimen) of the same compound?
**A.** 32.2%

**Q.** And the “Dose proportionality: AUC0-24h (AUCtau) ratio for dose ratio (r) = 2” value (Day 14, 10 and 20 mg QD)?
**A.** 1.51

**Q.** And the “Dose proportionality: Cmax ratio for dose ratio (r) = 2” value (Day 14, 10 and 20 mg QD)?
**A.** 1.58

**Q.** And the “Dose proportionality: AUC0-12h (AUCtau) ratio for dose ratio (r) = 1.3333” value (Day 14, 15 and 20 mg BID)?
**A.** 1.32

**Q.** And the “Dose proportionality: Cmax ratio for dose ratio (r) = 1.3333” value (Day 14, 15 and 20 mg BID)?
**A.** 1.31

**Q.** And the “AUC ratio, point estimate” value [1]?
**A.** 2.07

**Q.** And the “AUClast ratio, point estimate” value [1]?
**A.** 2.11

**Q.** And the “Cmax ratio, point estimate” value [1]?
**A.** 2.08

**Q.** What about the “AUC ratio, point estimate” value [2] of the same compound?
**A.** 2.09

**Q.** And the “AUClast ratio, point estimate” value [2]?
**A.** 2.16

**Q.** And the “Cmax ratio, point estimate” value [2]?
**A.** 3.60

**Q.** And the “AUC ratio, point estimate” value [3]?
**A.** 1.01

**Q.** What about the “AUClast ratio, point estimate” value [3] of the same compound?
**A.** 1.02

**Q.** What about the “Cmax ratio, point estimate” value [3] of the same compound?
**A.** 1.73

**Q.** And the “AUC ratio, point estimate” value [4]?
**A.** 4.43

**Q.** What about the “AUClast ratio, point estimate” value [4] of the same compound?
**A.** 4.56

**Q.** And the “Cmax ratio, point estimate” value [4]?
**A.** 4.79

**Q.** What about the “AUC ratio, point estimate” value [5] of the same compound?
**A.** 2.15

**Q.** And the “AUClast ratio, point estimate” value [5]?
**A.** 2.16

**Q.** And the “Cmax ratio, point estimate” value [5]?
**A.** 2.31

**Q.** And the “AUC ratio, point estimate” value [6]?
**A.** 2.12

**Q.** And the “AUClast ratio, point estimate” value [6]?
**A.** 2.11

**Q.** And the “Cmax ratio, point estimate” value [6]?
**A.** 1.33

**Q.** And the “AUC, GM” value (Part 1a single 10 mg fasted)?
**A.** 1170 ng·h/mL

**Q.** And the “CL/F, GM” value (Part 1a single 10 mg fasted)?
**A.** 8.56 L/h

**Q.** And the “CL/F, mean” value (Part 1a single 10 mg fasted)?
**A.** 9.11 L/h

**Q.** And the “Cmax, GM” value (Part 1a single 10 mg fasted)?
**A.** 116 ng/mL

**Q.** And the “T1/2z, GM” value (Part 1a single 10 mg fasted)?
**A.** 7.97 h

**Q.** What about the “T1/2z, mean” value (Part 1a single 10 mg fasted) of the same compound?
**A.** 8.22 h

**Q.** And the “Tlast, median” value (Part 1a single 10 mg fasted)?
**A.** 48.0 h

**Q.** And the “Tmax, median” value (Part 1a single 10 mg fasted)?
**A.** 1.02 h

**Q.** What about the “AUC, GM” value (Part 1a single 20 mg fasted) of the same compound?
**A.** 2410 ng·h/mL

**Q.** What about the “AUC, mean” value (Part 1a single 20 mg fasted) of the same compound?
**A.** 2450 ng·h/mL

**Q.** What about the “AUClast, GM” value (Part 1a single 20 mg fasted) of the same compound?
**A.** 2360 ng·h/mL

**Q.** What about the “AUClast, mean” value (Part 1a single 20 mg fasted) of the same compound?
**A.** 2400 ng·h/mL

**Q.** And the “CL/F, GM” value (Part 1a single 20 mg fasted)?
**A.** 8.28 L/h

**Q.** What about the “CL/F, mean” value (Part 1a single 20 mg fasted) of the same compound?
**A.** 8.43 L/h

**Q.** And the “Cmax, GM” value (Part 1a single 20 mg fasted)?
**A.** 241 ng/mL

**Q.** What about the “T1/2z, GM” value (Part 1a single 20 mg fasted) of the same compound?
**A.** 7.48 h

**Q.** What about the “T1/2z, mean” value (Part 1a single 20 mg fasted) of the same compound?
**A.** 7.63 h

**Q.** What about the “Tlast, median” value (Part 1a single 20 mg fasted) of the same compound?
**A.** 48.0 h

**Q.** What about the “Tmax, median” value (Part 1a single 20 mg fasted) of the same compound?
**A.** 1.50 h

**Q.** And the “AUC, GM” value (Part 1a single 30 mg fasted)?
**A.** 2440 ng·h/mL

**Q.** And the “AUClast, GM” value (Part 1a single 30 mg fasted)?
**A.** 2420 ng·h/mL

**Q.** What about the “CL/F, GM” value (Part 1a single 30 mg fasted) of the same compound?
**A.** 12.3 L/h

**Q.** What about the “CL/F, mean” value (Part 1a single 30 mg fasted) of the same compound?
**A.** 13.1 L/h

**Q.** What about the “Cmax, GM” value (Part 1a single 30 mg fasted) of the same compound?
**A.** 417 ng/mL

**Q.** And the “T1/2z, GM” value (Part 1a single 30 mg fasted)?
**A.** 5.70 h

**Q.** And the “T1/2z, mean” value (Part 1a single 30 mg fasted)?
**A.** 5.99 h

**Q.** And the “Tlast, median” value (Part 1a single 30 mg fasted)?
**A.** 48.0 h

**Q.** And the “Tmax, median” value (Part 1a single 30 mg fasted)?
**A.** 1.00 h

**Q.** And the “AUC, GM” value (Part 1a single 40 mg fasted)?
**A.** 5180 ng·h/mL

**Q.** And the “AUClast, GM” value (Part 1a single 40 mg fasted)?
**A.** 5120 ng·h/mL

**Q.** What about the “CL/F, GM” value (Part 1a single 40 mg fasted) of the same compound?
**A.** 7.72 L/h

**Q.** What about the “CL/F, mean” value (Part 1a single 40 mg fasted) of the same compound?
**A.** 8.15 L/h

**Q.** And the “Cmax, GM” value (Part 1a single 40 mg fasted)?
**A.** 555 ng/mL

**Q.** What about the “T1/2z, GM” value (Part 1a single 40 mg fasted) of the same compound?
**A.** 6.29 h

**Q.** And the “T1/2z, mean” value (Part 1a single 40 mg fasted)?
**A.** 6.40 h

**Q.** And the “Tlast, median” value (Part 1a single 40 mg fasted)?
**A.** 48.0 h

**Q.** What about the “Tmax, median” value (Part 1a single 40 mg fasted) of the same compound?
**A.** 1.50 h

**Q.** What about the “Dose proportionality of exposures” value (Part 1a, between 10 and 40 mg) of the same compound?
**A.** no major deviation from dose proportionality; also recorded: increased according to dose proportionality

**Q.** What about the “AUC, GM” value (Part 1b single 10 mg fed) of the same compound?
**A.** 1370 ng·h/mL

**Q.** What about the “AUClast, GM” value (Part 1b single 10 mg fed) of the same compound?
**A.** 1170 ng·h/mL

**Q.** And the “CL/F, GM” value (Part 1b single 10 mg fed)?
**A.** 7.27 L/h

**Q.** And the “CL/F, mean” value (Part 1b single 10 mg fed)?
**A.** 7.63 L/h

**Q.** What about the “Cmax, GM” value (Part 1b single 10 mg fed) of the same compound?
**A.** 111 ng/mL

**Q.** And the “Cmax, mean” value (Part 1b single 10 mg fed)?
**A.** 115 ng/mL

**Q.** And the “T1/2z, GM” value (Part 1b single 10 mg fed)?
**A.** 7.97 h

**Q.** And the “T1/2z, mean” value (Part 1b single 10 mg fed)?
**A.** 8.09 h

**Q.** And the “Tlast, median” value (Part 1b single 10 mg fed)?
**A.** 24.0 h

**Q.** What about the “Tmax, median” value (Part 1b single 10 mg fed) of the same compound?
**A.** 4.24 h

**Q.** What about the “AUC, GM” value (Part 1b single 40 mg fed) of the same compound?
**A.** 4740 ng·h/mL

**Q.** And the “AUClast, GM” value (Part 1b single 40 mg fed)?
**A.** 3960 ng·h/mL

**Q.** And the “CL/F, GM” value (Part 1b single 40 mg fed)?
**A.** 8.43 L/h

**Q.** And the “CL/F, mean” value (Part 1b single 40 mg fed)?
**A.** 8.92 L/h

**Q.** And the “Cmax, GM” value (Part 1b single 40 mg fed)?
**A.** 374 ng/mL

**Q.** And the “T1/2z, GM” value (Part 1b single 40 mg fed)?
**A.** 8.03 h

**Q.** What about the “T1/2z, mean” value (Part 1b single 40 mg fed) of the same compound?
**A.** 8.31 h

**Q.** And the “Tlast, median” value (Part 1b single 40 mg fed)?
**A.** 24.0 h

**Q.** And the “Tmax, median” value (Part 1b single 40 mg fed)?
**A.** 4.5 h

**Q.** And the “Mean T1/2z across doses and regimens” value (Part 2, Day 14)?
**A.** 7.3 to 9.1 h

**Q.** And the “Median time to steady state of plasma concentrations” value (Part 2, after first administration, irrespective of dose or regimen)?
**A.** 1.4 to 2 days
